These results are taken from US20250163459A1, “IMPROVED CELL LINES AND METHODS FOR THE PRODUCTION OF ADENO-ASSOCIATED VECTORS” (CEVEC PHARMACEUTICALS GMBH, priority 2022, published 2025).

Format in all cases: cell-based, human
Assay [1] relates to CAP cells. Kind of assay: Encapsidated host cell DNA in AAV particles, ALU qPCR, CAP-derived producer cells. The following applies: for encapsidated hcDNA: 30 μM and 60 μM, compared to vehicle treated controls (DMSO). The method, then: (§1) At different time points post transfection, cell suspension was harvested, and cells were lysed by addition of Triton-X 100 (Sigma). After centrifugation, supernatants were diluted and incubated with TurboDNase (ThermoFisher Scientific), in order to remove non-encapsidated DNA contaminants. After inactivation of TurboDNAse, proteinase K was added to digest the viral capsid and subsequently amplify viral genomic DNA or hcDNA via ddPCR or qPCR.
(§2) The following primer/dual-labelled probe combinations (ordered at MWG, Eurofins and IDT, respectively, Table 1) directed against • a) the SV40 PolyA (quantification of viral titer) or • b) Alu sequences (quantification of hcDNA) • were used:
(§3) As standard for the viral genome, linearized transgene plasmid with a defined copy number was used. As standard for the hcDNA assay previously isolated CAP and HEK293 DNA (purified with DNeasy® Blood & Tissue Kit) was used.
AAV samples were treated with Turbo DNAse (Thermo Fischer Scientific) to digest the non-encapsidated DNA before the capsids were digested using Proteinase K. Proteinase K was inactivated by a heating step at 95° C. for 15 min. The samples were measured either by qPCR or ddPCR as follows:
The qPCR reaction contained the following components: 2×Brilliant Multiplex qPCR Master Mix (Agilent), nuclease-free H2O (Thermo Fisher Scientific), primer/probe mix and sample/standard. qPCR was run on an LightCycler 480 according to the manufacturer's instructions.
(§4) • Z-VAD-fmk inhibits caspases 3 and 8 which are upstream of the apoptotic nucleases DFF40 and ENDOG, respectively. • Z-VAD-fmk treatment should therefore reduce chromosomal fragmentation and decrease amount of packageably sized AAV cargo. • Transiently transfected CAP cells and HEK293 cells or full producers were cultured to produce AAV in the presence of absence of Z-VAD-fmk. • Resulting AAV particles were harvested from cell suspension on days 1, 2, 3, and 4 post induction. • Encapsidated host cell DNA was measured using a dedicated qPCR assay amplifying ALU repeats. • DNA fragmentation was determined using the DNA fragmentation assay by Chemometec.

A further assay relates to stable producer cells. Kind of assay: Capsid levels by ELISA. The following applies: in the presence of Z-VAD-fmk. The method, then: Inhibition of apoptotic DNA fragmentation reduces amount and packaging of hcDNA. • a) First page: sensitivity test for Sub-G1 DNA-fragmentation assay (Chemometec) using Camptothecin treatment (10 μM) on parental CAP cells over night. M1 population as % of global DNA stain. Second page: merged curves for apoptotic DNA fragmentation determined by same assay after 0 h (black curve), 18 h (dark grey), and 44 h (light grey), with Z-VAD-fmk (right) and in control samples (left, induction only) • b) First page: Relative share of encapsidated hcDNA [%] in transient and stable AAV8 production at 3 days post induction (transient transfection) and 5 days post induction (stable clone). […] Encapsidated hcDNA was measured in relation to the respective untreated controls, each set at 100%. Second page: fold difference of hcDNA concentration over time [hours] in an untreated AAV production using stable producer clone 1 (light grey line) normalized to 10 μg/ml of Z-VAD-fmk (dark grey line) determined by ALU qPCR. • c) First page: Relative Capsid levels determined by ELISA in stable producer clone 1 and transiently transfected HEK293 suspension cells at different Z-VAD-fmk concentrations and compared with Camptothecin. […] Second page: corresponding host cell DNA per capsid as determined by ALU qPCR normalized to untreated controls. […]
For orientation: In an ELISA, binding on a coated surface is turned into a signal by an enzyme label.

For assay [2], the system named is HEK293 cells. Put plainly: Encapsidated host cell DNA in AAV particles, ALU qPCR, HEK293 cells. The following applies: up to 40 μg/ml, compared to untreated controls, transient transfection. The method, then:
as §1, §2, §3
AAV samples were treated with Turbo DNAse (Thermo Fischer Scientific) to digest the non-encapsidated DNA before the capsids were digested using Proteinase K. Proteinase K was inactivated by a heating step at 95° C. for 15 min. The samples were measured either by qPCR or ddPCR as follows: […]
A general note: Quantitative PCR measures a nucleic acid by following its amplification.

Assay [3] relates to CAP cells. Kind of assay: Sub-G1 DNA fragmentation assay (Chemometec, NucleoCounter NC-3000). The following applies: during vector production; Camptothecin 10 μM over night on parental CAP cells.
Excerpt: A DNA fragmentation assay by Chemometec was applied using the NucleoCounter® NC-3000™ according to note No. 3003. Rev. 1.4.
In brief, cells were permeabilized with Ethanol, which allows low molecular weight DNA fragments (e.g., apoptotic DNA) to leak out, while large fragments and undamaged chromosomes are retained inside the nucleus. Total DNA content was stained by DAPI and detected using the NucleoCounter® NC-3000™. Here, cells typically fall into one of three clusters when plotted by signal intensity. The G1 peak represents the majority of cells with 2n DNA content. A second, smaller peak represents cells in G2 phase of the cell cycle, containing 4n. […]
as §4

Assay [4] concerns HEK293 cells. Kind of assay: Endpoint PCR for detection of encapsidated hcDNA. The following applies: transiently transfected HEK293 wt cells, cargo 1 or cargo 3. The method, then:
Encapsidated hcDNA was prepared as described. PCR setup involved 3 μl sample as template for an endpoint PCR with 40 cylces using Q5 High-Fidelity DNA polymerase (NEB) according to the manufacturer's instructions. PCR samples were analyzed on a 2% agarose gel.

The next assay deals with CAP cell line. Put plainly: Viable cell density and viability of induced AAV producer cells. The following applies: for viable cell density and viability: induced AAV producer cells, versus untreated cells, Camptothecin 10 μM. On the procedure: During routine cultivation, cells were diluted with fresh medium to a viable cell density of 0.5-1×10^6 cells/ml every 72 to 96 h. Viable cell density and viability were determined by trypan blue exclusion using a Vi-Cell Blu cell counter (Beckman Coulter).
• Various stable and transient AAV producer cells were induced with doxycycline and treated with different concentrations of the antiapoptotic pan-caspase inhibitor Z-VAD-fmk. • Cell viability was evaluated using the NucleoCounter NC-3000.

In the case of `C[S+]([O-])c1ccc(-c2nc(-c3ccc(F)cc3)c(-c3ccncc3)[nH]2)cc1` (centres unmarked) [Adezmapimod, 4-(4-fluorophenyl)-2-(4-methylsulfinylphenyl)-5-(4-pyridyl)-1H-imidazole], the “encapsidated hcDNA” value in the assay with CAP cells [1] (stable inducible AAV producer cells, day 3 post induction) is on record as “reduced hcDNA encapsidation”; in the assay on CAP cells [1] (stable inducible AAV producer cells, day 3 post induction, listed as SB 203580), “reduces the encapsidated hcDNA”. In the assay with CAP cells [1] (60 μM, stable inducible AAV producer cells, compared to vehicle treated controls, day 3 post induction), the “reduction of encapsidated hcDNA” value is given as “more than 75%”.

As for “Z-Val-Ala-Asp fluoromethyl ketone [Z-VAD-fmk]”, the “capsid levels (ELISA)” value in the assay with stable producer cells is reported as “slightly increased”. In addition, the “packaging of host cell DNA” value was “dramatically decreased packaging of host cell DNA” with HEK293 cells [2]; “dramatically decreased packaging of host cell DNA” in the assay on CAP cells [1] (up to 40 μg/ml, compared to untreated controls, fully transient approach and full producers). The “amount of low molecular weight DNA (short DNA fragments)” value in the assay on CAP cells [3] is recorded as “reduced the amount of low molecular weight DNA”. The “encapsidated hcDNA (genomic DNA sequence from HEK293 cells)” value with HEK293 cells [4] is reported as “undetectable”. Besides, the “reduction in encapsidated hcDNA normalized to capsid levels” value in the assay on CAP cells [1] (stable producer cells, compared to controls) is listed as about 10 fold. This compound had an increase in viability in the assay with CAP cell line (80 h of treatment with 10 μg/ml, compared to untreated cells) of about 10 percentage points. In addition, the “compensation of Camptothecin-reduced viability and VCD” value in the assay on CAP cell line (co-culturing, 10 μM Camptothecin+20 μM Z-VAD-fmk) is recorded as “could be compensated”. For the same compound, the “viable cell density and viability” value in the assay with CAP cell line is “increased viable cell density and viability”.

`CC[C@@]1(O)C(=O)OCc2c1cc1n(c2=O)Cc2cc3ccccc3nc2-1` [Camptothecin]: the “amount of low molecular weight DNA (short DNA fragments)” value with CAP cells [3] is “increase in short DNA fragments”. For the same compound, in the assay with CAP cell line, the “viable cell density and viability” value was “reduced viability and VCD”.
